Laboratory results as given in patent US20090176996A1, “PROCESS FOR THE PREPARATION OF SULFAMIDE DERIVATIVES” (priority 2008, published 2009).

melting point: 102 to 104 °C
Compound: NS(=O)(=O)NCc1ccccc1 (hydrate or solvate) [Example 5, Benzylsulfamide]
